Laboratory results: patent US6737406B1, “Cryptic peptides and method for their identification” (Circassia, Ltd., priority 1996, dated 2004)

Assays:
T lymphocytes = test: Inhibition of T cell proliferation to FC1P peptides, tritiated thymidine incorporation (Example 5); type: cell-based; conditions: added at 10^−6M or 10^−9M; freshly isolated T lymphocytes cultured with FC1P
Procedure: Freshly isolated T lymphocytes were cultured in vitro with concentrations of FC1P peptides, previously determined as being optimal for the induction of proliferative and/or other responses in these cells. To certain of the culture wells were added, the glucocorticosteroid Dexamethazone or fluticazone, these were added to cultures at dilutions of 10^−6M or 10^−9M. After culture, cells were labelled with tritiated thymidine to enable quantification of DNA synthesis and thus cellular proliferation.

[1] = system: peripheral blood mononuclear cells; test: Primary proliferative response of freshly isolated PBMC to FC1P (Example 3); type: cell-based, human; conditions: 10^5 cells per well, 6 days, cat allergic asthmatics (CAA) compared with non-cat allergic asthmatics (NCA)
Procedure: Freshly isolated peripheral blood mononuclear cells were cultured at 10^5 cells per well for 6 days prior to labelling with tritiated thymidine for measurement of cellular proliferation.

[2] = system: volunteer cat-allergic asthmatic; test: Intradermal injection of FC1P into a volunteer cat-allergic asthmatic, lung function (Example 4); type: in vivo, human; conditions: 40 μg FC1P intradermally into each forearm
Procedure: 40 μg of highly purified FC1P peptides was injected intradermally into each forearm of a volunteer cat-allergic asthmatic. […] The drop in FEV1 was reversed by the administration of β2 agonist and inhaled corticosteroid at 8 hours. The results of this are shown diagrammatically in FIG. 6.

## C[C@@H]1C[C@H]2[C@@H]3CCC4=CC(=O)C=C[C@]4(C)[C@@]3(F)[C@@H](O)C[C@]2(C)[C@@]1(O)C(=O)CO [dexamethazone]
T lymphocytes
  inhibition of T cell proliferation to FC1P peptides (tritiated thymidine incorporation): inhibition of T cell proliferation

## C[C@@H]1C[C@H]2[C@@H]3C[C@H](F)C4=CC(=O)C=C[C@]4(C)[C@@]3(F)[C@@H](O)C[C@]2(C)[C@@]1(O)C(=O)SCF [fluticazone]
T lymphocytes
  inhibition of T cell proliferation to FC1P peptides (tritiated thymidine incorporation): inhibition of T cell proliferation

## FC1P: three synthetic peptides derived from the sequence of Fel d I, collectively FC1P (SEQ ID NO:23, 5 and 24) (chain 1 LFLTGTPDEYVEQVAQY; chain 2 EQVAQYKALPVVLENA; chain 3 KALPVVLENARILKNCV; listed as Felis domesticus)
[1]
  primary proliferative responses (cellular proliferation, tritiated thymidine): greater primary proliferative responses
[2]; cat-allergic asthmatic
  late-phase asthmatic reaction: induced an isolated late-phase asrimatic reaction
  time of late-phase asthmatic reaction after administration: approximately three
[2]; over the next several hours
  Lung function (quantified as FEV1): fell and remained low
